# Results from patent US20250280827A1, “An antifungal composition comprising natamycin and at least one insecticide” (priority 2021, published 2025).
# Read-outs that look alike come from different tables or passages of the source.
# What was measured:
# Sclerotinia sclerotiorum = assay: Antifungal effect against Sclerotinia sclerotiorum infection on wounded skin of broad bean pods (rot area, Colby synergy); format: in vivo
# Source text: (§1) The Colby equation (Colby, 1967. Weeds 15:20-22) calculates the expected antifungal activity (E in %) of a combination comprising more than one active ingredients:
# (§2) wherein X and Y are the observed antifungal activities (in %) of the individual active ingredients x and y, respectively. If the observed antifungal activity (O in %) of the combination exceeds the expected antifungal activity (E in %) of the combination and the synergy factor O/E is thus >1.0, the combined application of the active ingredients leads to a synergistic antifungal effect.
# • 1) Control (without natamycin and lambda-cyhalothrin) • 2) Natamycin at a level of 15 ppm • 3) Lambda-cyhalothrin (in the product KARATE ZEON® of Syngenta) at a levels of 0.15 ppm, 0.6 ppm, 3 ppm and 15 ppm • 4) Natamycin at a level of 15 ppm combined with lambda-cyhalothrin at levels of 0.15 ppm, 0.6 ppm, 3 ppm or 15 ppm.
# Used pathogen: Sclerotinia sclerotiorum.
# (§3) Application: The broad bean pods were washed under tap water, and were subsequently surface sterilized by placing them in a 0.1% sodium hypochlorite solution for 5 minutes. The pods were then rinsed with tap water and dried. Transparent plastic containers were prepared by placing a piece of absorbing paper in the container and adding 25 ml of water, one container per treatment was used. The pods were cut in two, and two halve pods were incubated per box. The skin of broad bean pods was damaged with a needle, ø 2 mm and to a depth of about 3 mm into the fruit, with—depending on the size of the pod—2 to 4 wounds per half pod. In total, 6 wounds were incubated per treatment, of which 1 was used as a control. A volume of 20 microliter of a natamycin/insecticide composition, as presented herein above, was applied by pipette to each wound. The treatments were then left to air-dry. Once dried, a mycelium plug of Sclerotinia sclerotiorum was placed upside down on each wound, so that the mycelium was in direct contact with the wound. Per treatment 5 wounds were inoculated with the fungus, while the 6th and last wound was used as negative non-inoculated control. After inoculation, the containers were directly closed with a transparent plastic lid.
# All pods were kept at room temperature (20° C.). Wounds of the pods were checked after 30 h of incubation.
# Replicates: All treatments for the broad bean pod experiment were performed on two individual pod halves resulting in 5 wounds per treatment, while a sixth wound served as control.
# The experiments were performed as described in Example 1.
# The experiments were performed as described in Example 1. Assessment of the infection area was 23 h after inoculation. Experiment was performed in 5-fold.
# The experiments were performed as described in Example 1. Thiamethoxam belongs to IRAC Group 4. Assessment of the infection area was 31 hours after inoculation. Experiment was performed in 5-fold.
# The experiments were performed as described in Example 1. The product SPECTRE® of company (Adama) containing the active ingredient chlorfenapyr belonging to IRAC Group 13 was tested. Assessment of the infection area was 23 hours after inoculation. Experiment was performed in 5-fold.
# Fusarium graminerum = format: cell-based; settings: 6 days after inoculation
# Source text: as §1, §2
# (§4) Agar medium was prepared by mixing in a 100 ml Duran bottle 3.9 g of potato dextrose agar (PDA) from Carl-Roth (Carl-Roth GmbH+Co. KG, Karlsruhe, Germany) with 100 ml deionized water and autoclaving the Duran bottle at 120° C. for 15 minutes. After autoclaving, the solution was cooled by putting it in a 48° C. oven for about two hours. Afterward the semi-liquid PDA solution was carefully mixed with natamycin and/or insecticide dosages as specified in Table 5 showing the interaction results on petri dishes. The medium in the Duran bottle was divided over 5 petri dishes (90×15 mm), 20 ml per petri dish by using 25 ml serological pipets (ROTILABO®; Carl-Roth). Each natamycin and/or insecticide treatment was performed in fivefold.
# (§5) Fungal spore suspensions were prepared by drenching a fully grown petri dish with sterile water. The fungus was scraped off and filtered through a Miracloth (pore size: 22-25 μm) (Merck KGaA, Darmstadt, Germany; catalogue number: 475855). The number of spores were counted with a hemocytometer and fungal suspension was adjusted to 10^6 spores per ml. Afterward, 5 μl of prepared spore suspension was pipetted on the center of the agar plate. The plates were incubated at 25° C. Measurement of the fungal growth was done using callipers at different time points. Assessment of the infection area was 6 days after inoculation.
# (§6) The insecticide levels and the period after which the assessments were made are presented as specified for the different insecticides are presented in Table 5 below. Synergistic calculation was done using the Colby equation. Experiment was performed in 5-fold.
# The experiments were performed as described in Example 3. The product KARATE ZEON® of company Syngenta containing the active ingredient lambda-cyhalothrin belonging to IRAC Group 3 was tested. Assessment of the infection area was 6 days after inoculation. Experiment was performed in 5-fold.
# Fusarium culmorum = assay: Antifungal effect against Fusarium culmorum on PDA petri dishes (fungal growth area, Colby synergy); format: cell-based
# Source text: as §1, §2, §4, §5, §6
# The experiments were performed as described in Example 3. Assessment of the infection area was 6 days after inoculation. Experiment was performed in 5-fold.
# The experiments were performed as described in Example 3. The product KARATE ZEON® of company Syngenta containing the active ingredient lambda-cyhalothrin belonging to IRAC Group 3 was tested. Assessment of the infection area was 3 days after inoculation. Experiment was performed in 5-fold.
# Botrytis cinerea = assay: Antifungal effect against Botrytis cinerea infection on wounded peel of banana fruits (Colby synergy); format: in vivo; settings: 5 days after inoculation
# Source text: as §2, §3
# The infection area was measured 5 days after inoculation.
# A few changes were made for the banana experiments: 5 wounds per banana were made, on each wound 40 microliter of treatments was pipetted. The treatments were then left to air-dry. Once dried, 2 microliter of a freshly prepared inoculum was pipetted on four of the wounds. The inoculum consists of […] potato dextrose broth (PDB) medium containing Botrytis cinerea spores at a concentration of 10^6 spores per ml. The fifth wound was used as negative non-inoculated control. Experiment was performed in 4-fold.
# Assessment of the infection area was performed 3 days after inoculation. Experiment was performed in 4-fold.
# Imidacloprid was formulated as described in Table 2. Assessment of the efficacy was 5 days after inoculation. Experiment was performed in 4-fold.
# [1] = natamycin-insecticide 0-0.15 ppm, 23 h after inoculation, Table 4
# [2] = natamycin-insecticide 0-0.6 ppm, 23 h after inoculation, Table 4
# [3] = natamycin-insecticide 0-3 ppm, 23 h after inoculation, Table 4
# [4] = natamycin-insecticide 0-15 ppm, 23 h after inoculation, Table 4
# [5] = natamycin-insecticide 0-0.05 ppm, Table 5
# [6] = natamycin-insecticide 0-0.1 ppm, Table 5
# [7] = natamycin-insecticide 0-0.2 ppm, Table 5
# [8] = natamycin-insecticide 0-0.5 ppm, Table 5
# [9] = natamycin-insecticide 0-0.05 ppm, 6 days after inoculation, Table 6
# [10] = natamycin-insecticide 0-0.1 ppm, 6 days after inoculation, Table 6
# [11] = natamycin-insecticide 0-0.2 ppm, 6 days after inoculation, Table 6
# [12] = natamycin-insecticide 0-0.5 ppm, 6 days after inoculation, Table 6
# [13] = natamycin-insecticide 0-0.15 ppm, 30 h after inoculation, Table 3
# [14] = natamycin-insecticide 0-0.6 ppm, 30 h after inoculation, Table 3
# [15] = natamycin-insecticide 0-3 ppm, 30 h after inoculation, Table 3
# [16] = natamycin-insecticide 0-15 ppm, 30 h after inoculation, Table 3
# [17] = natamycin-insecticide 0-0.1 ppm, Table 10
# [18] = natamycin-insecticide 0-0.2 ppm, Table 10
# [19] = natamycin-insecticide 0-0.5 ppm, Table 10
# [20] = natamycin-insecticide 0-1 ppm, Table 10
# [21] = natamycin-insecticide 0-0.05 ppm, 3 days after inoculation, Table 11
# [22] = natamycin-insecticide 0-0.1 ppm, 3 days after inoculation, Table 11
# [23] = natamycin-insecticide 0-0.2 ppm, 3 days after inoculation, Table 11
# [24] = natamycin-insecticide 0-0.5 ppm, 3 days after inoculation, Table 11
# [25] = natamycin-insecticide 0:0.004 ppm, Table 12B
# [26] = natamycin-insecticide 0:0.01 ppm, Table 12A
# [27] = natamycin-insecticide 0:0.04 ppm, Table 12A
# [28] = natamycin-insecticide 0:1 ppm, Table 12A
smiles,measurement,setting,value
CCOC(=O)/C=C(C)/C=C/CC(C)CCCC(C)C (centres unmarked) [hydroprene],Avg infected area,Sclerotinia sclerotiorum; [1],99.3 mm2
same,Observed antifungal activity,Sclerotinia sclerotiorum; [1],36.6%
same,Avg infected area,Sclerotinia sclerotiorum; [2],103.1 mm2
same,Observed antifungal activity,Sclerotinia sclerotiorum; [2],34.2%
same,Avg infected area,Sclerotinia sclerotiorum; [3],74.5 mm2
same,Observed antifungal activity,Sclerotinia sclerotiorum; [3],52.5%
same,Avg infected area,Sclerotinia sclerotiorum; [4],89 mm2
same,Observed antifungal activity,Sclerotinia sclerotiorum; [4],43.2%
same,Avg infected area,Fusarium graminerum; [5],1124 mm2
same,Observed antifungal activity,Fusarium graminerum; [5],1.0%
same,Avg infected area,Fusarium graminerum; [6],1142.1 mm2
same,Observed antifungal activity,Fusarium graminerum; [6],−0.6%
same,Avg infected area,Fusarium graminerum; [7],970.5 mm2
same,Observed antifungal activity,Fusarium graminerum; [7],14.5%
same,Avg infected area,Fusarium graminerum; [8],1055.1 mm2
same,Observed antifungal activity,Fusarium graminerum; [8],7.1%
same,Avg infected area,Fusarium culmorum; [9],934.7 mm2
same,Observed antifungal activity,Fusarium culmorum; [9],6.4%
same,Avg infected area,Fusarium culmorum; [10],1010.5 mm2
same,Observed antifungal activity,Fusarium culmorum; [10],−1.2%
same,Avg infected area,Fusarium culmorum; [11],1014.3 mm2
same,Observed antifungal activity,Fusarium culmorum; [11],−1.6%
same,Avg infected area,Fusarium culmorum; [12],1060.2 mm2
same,Observed antifungal activity,Fusarium culmorum; [12],−6.2%
"CC1(C)[C@H](/C=C(\Cl)C(F)(F)F)[C@@H]1C(=O)O[C@@H](C#N)c1cccc(Oc2ccccc2)c1 [lambda-cyhalothrin, [(R)-cyano-(3-phenoxyphenyl)methyl] (1S,3S)-3-[(Z)-2-chloro-3,3,3-trifluoroprop-1-enyl]-2,2-dimethylcyclopropane-1-carboxylate]",Avg infected area,Sclerotinia sclerotiorum; [13],314.73 mm^2
same,Observed antifungal activity,Sclerotinia sclerotiorum; [13],−0.1%
same,Avg infected area,Sclerotinia sclerotiorum; [14],325.88 mm^2
same,Observed antifungal activity,Sclerotinia sclerotiorum; [14],−3.7%
same,Avg infected area,Sclerotinia sclerotiorum; [15],350.24 mm^2
same,Observed antifungal activity,Sclerotinia sclerotiorum; [15],−11.4%
same,Avg infected area,Sclerotinia sclerotiorum; [16],322.41 mm^2
same,Observed antifungal activity,Sclerotinia sclerotiorum; [16],−2.5%
same,Avg infected area,Fusarium graminerum; [17],4846.2 mm2
same,Observed antifungal activity,Fusarium graminerum; [17],−34.1%
same,Avg infected area,Fusarium graminerum; [18],5071.1 mm2
same,Observed antifungal activity,Fusarium graminerum; [18],−40.3%
same,Avg infected area,Fusarium graminerum; [19],4842.3 mm2
same,Observed antifungal activity,Fusarium graminerum; [19],−34%
same,Avg infected area,Fusarium graminerum; [20],4714.2 mm2
same,Observed antifungal activity,Fusarium graminerum; [20],−30.4%
same,Avg infected area,Fusarium culmorum; [21],384.0 mm2
same,Observed antifungal activity,Fusarium culmorum; [21],−5.9%
same,Avg infected area,Fusarium culmorum; [22],383.9 mm2
same,Observed antifungal activity,Fusarium culmorum; [22],−5.8%
same,Avg infected area,Fusarium culmorum; [23],370.9 mm2
same,Observed antifungal activity,Fusarium culmorum; [23],−2.2%
same,Avg infected area,Fusarium culmorum; [24],381.7 mm2
same,Observed antifungal activity,Fusarium culmorum; [24],−5.2%
same,Avg infected area,Botrytis cinerea; [25],82.4 mm2
same,Observed antifungal activity,Botrytis cinerea; [25],16.6%
same,Avg infected area,Botrytis cinerea; [26],38.9 mm2
same,Observed antifungal activity,Botrytis cinerea; [26],39.0%
same,Avg infected area,Botrytis cinerea; [27],55.1 mm2
same,Observed antifungal activity,Botrytis cinerea; [27],13.7%
same,Avg infected area,Botrytis cinerea; [28],41.8 mm2
same,Observed antifungal activity,Botrytis cinerea; [28],34.6%
